These results are taken from patent US11440883B2, “Heterocyclic compound and use thereof” (Takeda Pharmaceutical Company Limited, priority 2017, dated 2022).

Assay [1] has as its target T1, human orexin type 2 receptor (Homo sapiens, UniProt O43614).
T1 construct: expressed in transfected cells
T1 sequence (O43614 1-444): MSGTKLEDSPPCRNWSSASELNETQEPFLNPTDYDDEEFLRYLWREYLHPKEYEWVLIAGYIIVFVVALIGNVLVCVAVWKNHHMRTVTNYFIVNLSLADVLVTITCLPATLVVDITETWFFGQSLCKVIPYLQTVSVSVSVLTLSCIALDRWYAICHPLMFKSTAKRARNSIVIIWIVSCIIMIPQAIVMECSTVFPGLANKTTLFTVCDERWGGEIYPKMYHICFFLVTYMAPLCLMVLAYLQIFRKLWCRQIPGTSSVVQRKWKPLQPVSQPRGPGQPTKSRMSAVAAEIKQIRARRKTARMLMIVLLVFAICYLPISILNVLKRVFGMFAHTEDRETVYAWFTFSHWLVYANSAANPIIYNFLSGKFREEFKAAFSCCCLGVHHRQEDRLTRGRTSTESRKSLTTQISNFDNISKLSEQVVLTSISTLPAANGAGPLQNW
Description: Measurement of orexin type 2 receptor agonist activity (Fluo-4 calcium fluorescence, FDSS). It counts as cell-based. Conditions: 3 μM test compound; CHO cells expressing human OX2 receptor; DMSO = 0%, orexin A (human) = 100%. The source says: To obtain a cell clone stably expressing human orexin type 2 receptor, human orexin type 2 receptor cDNA was inserted into pcDNA3.1(+) plasmid vector (Invitrogen), and a plasmid DNA for expression of human orexin type 2 receptor (pcDNA3.1(+)/hOX2R) was cloned. The plasmid DNA was introduced into CHO-dhfr cell by an electroporation method, and human orexin type 2 receptor expressing clone cells were obtained by limiting dilution method by using G418 drug resistance as a selection marker.
CHO cells forcibly expressing human OX2 receptor were seeded in each well of 384 well black transparent bottom plate (BD Falcon) at 7,500 cells/well, and cultured for one day in a 5% CO2 incubator at 37° C. […] A test compound prepared by diluting with assay buffer B (HBSS, 20 mM HEPES, 0.1% BSA) was added at 10 μL/well, and the fluorescence value was measured by FDSSUCELL (Hamamatsu Photonics K.K.) every one sec for 1 min, and thereafter every two sec for 1 min 40 sec. The activity (%) of the test compound was calculated assuming that variation in the fluorescence value when DMSO was added instead of the test compound was 0%, and variation in the fluorescence value when orexin A (human) (PEPTIDE INSTITUTE, INC.) was added at the final concentration of 10 nM was 100%.

For assay [2], the system named is cynomolgus monkeys. Kind of assay: Evaluation of wake-promoting effects in cynomolgus monkeys (EEG/EMG/EOG). The settings on record: Macaca fascicularis, sc, at ZT12, time spent in wakefulness for 4 h after administration, male cynomolgus monkeys, read-out: Wakefulness time (% of vehicle treatment) (Mean, n = 1-2). The class given is in vivo, cynomolgus monkey.

SMILES strings stand for the structures.

Consider `CCNC(=O)N1CCC[C@H](NS(C)(=O)=O)[C@@H]1Cc1cccc(O[Si](C(C)C)(C(C)C)C(C)C)c1` (relative stereo) [Example 17, cis-N-ethyl-3-((methylsulfonyl)amino)-2-(3-((triisopropylsilyl)oxy)benzyl)piperidine-1-carboxamide], for which, in assay [1], the “OX2R agonist activity (3 μM, %)” value is reported as 29%. `CCS(=O)(=O)N[C@H]1CCN(C(=O)C(C)(C)O)[C@H]1Cc1cccc(-c2cccc(F)c2)c1F` [Example 482, N-((2S,3S)-2-((2,3′-difluorobiphenyl-3-yl)methyl)-1-(2-hydroxy-2-methylpropanoyl)pyrrolidin-3-yl)ethanesulfonamide]: the response vs control in vivo at 1 mg/kg in assay [2] was 281%. Same read-out and setting: to `CC(C)(O)C(=O)N1CC[C@H](NS(C)(=O)=O)[C@@H]1Cc1cccc(-c2cc(F)cc(F)c2)c1F` [Example 483, N-((2S,3S)-1-(2-hydroxy-2-methylpropanoyl)-2-((2,3′,5′-trifluorobiphenyl-3-yl)methyl)pyrrolidin-3-yl)methanesulfonamide] belongs 359%. As for `CCS(=O)(=O)N[C@H]1CCN(C(=O)C(C)(C)O)[C@H]1Cc1cccc(-c2cc(F)cc(F)c2)c1F` [Example 484, N-((2S,3S)-1-(2-hydroxy-2-methylpropanoyl)-2-((2,3′,5′-trifluorobiphenyl-3-yl)methyl)pyrrolidin-3-yl)ethanesulfonamide], the response vs control in vivo at 1 mg/kg in assay [2] was 492%.
